According to ChEMBL document CHEMBL4476874, “Compounds for the modulation of myc activity” (2018):
Each block holds one molecule with its values, some of them ahead of it.

Columns and labels:
NCI-H2171 = assay: Antiproliferative activity against human NCI-H2171 cells after 72 hrs by ATPlite assay; format: functional, cell-based; details: NCI-H2171, 72 h
[1] = target: Myc proto-oncogene protein (Homo sapiens, UniProt P01106); assay: Inhibition of human c-Myc assessed as reduction in c-Myc/Max/Ebox DNA complex formation using pre-formed complex of c-Myc and biotinylated DNA containing single Ebox-sequence followed by compound addition and further addition of his6-tagged c-Max and incubated for 2 hrs by AlphaScreen assay
Chain of Myc proto-oncogene protein (P01106 whole entry): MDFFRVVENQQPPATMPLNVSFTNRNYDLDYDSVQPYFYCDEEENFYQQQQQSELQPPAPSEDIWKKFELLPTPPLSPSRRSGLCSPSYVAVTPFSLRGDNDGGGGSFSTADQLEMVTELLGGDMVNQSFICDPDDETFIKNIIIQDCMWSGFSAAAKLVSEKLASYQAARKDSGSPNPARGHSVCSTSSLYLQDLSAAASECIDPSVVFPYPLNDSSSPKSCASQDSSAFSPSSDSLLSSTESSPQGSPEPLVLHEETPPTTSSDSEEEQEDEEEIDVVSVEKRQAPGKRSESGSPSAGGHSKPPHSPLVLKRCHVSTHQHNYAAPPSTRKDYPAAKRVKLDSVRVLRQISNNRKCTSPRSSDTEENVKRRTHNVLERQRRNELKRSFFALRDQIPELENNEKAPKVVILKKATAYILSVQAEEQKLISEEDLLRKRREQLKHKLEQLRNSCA

SMILES: COCCNCCC(=O)Nc1sc2c(c1-c1nc3c(Nc4ccccc4)cccc3s1)CCNC2
IC50 (NCI-H2171): 300 to 1000 nM
IC50 [1]: > 10000 nM

SMILES: O=C(CCN1CCOCC1)Nc1sc2c(c1-c1nc3ccccc3s1)CCNC2
IC50 (NCI-H2171): 300 to 1000 nM
IC50 [1]: 1000 to 10000 nM

SMILES: O=C(C[C@@H]1CCCN1)Nc1sc2c(c1-c1nc3ccccc3s1)CCNC2
IC50 (NCI-H2171): < 300 nM
IC50 [1]: 1000 to 10000 nM

SMILES: CC(C)N1CCc2c(sc(NC(=O)CCN3CCOCC3)c2-c2nc3ccccc3s2)C1
IC50 (NCI-H2171): < 300 nM
IC50 [1]: 300 to 1000 nM

SMILES: CC(=O)Nc1sc2c(c1-c1nc3ccc(-c4cnn(C)c4)cc3s1)CCNC2
IC50 (NCI-H2171): 300 to 1000 nM
IC50 [1]: 300 to 1000 nM

SMILES: CC(=O)Nc1cccc2sc(-c3c(NC(=O)CCNC(C)C)sc4c3CCNC4)nc12
IC50 (NCI-H2171): < 300 nM
IC50 [1]: 300 to 1000 nM

SMILES: CC(C)NCCC(=O)Nc1sc2c(c1-c1nc3cc(SC4CCCC4)ccc3s1)CCNC2
IC50 (NCI-H2171): < 300 nM
IC50 [1]: > 10000 nM

SMILES: CC(C)N1CCc2c(sc(NC(=O)CCNCc3ccccc3)c2-c2nc3ccccc3s2)C1
IC50 (NCI-H2171): 1000 to 10000 nM
IC50 [1]: 1000 to 10000 nM

SMILES: CC(C)NCCC(=O)Nc1sc2c(c1-c1nc3cc(S(=O)(=O)C4CCCC4)ccc3s1)CCNC2
IC50 (NCI-H2171): < 300 nM
IC50 [1]: 300 to 1000 nM

SMILES: NCCC(=O)Nc1sc2c(c1-c1nc3ccccc3s1)CCNC2
IC50 (NCI-H2171): < 300 nM
IC50 [1]: < 300 nM

SMILES: CC(C)NCCC(=O)Nc1sc2c(c1-c1nc3cc(O)ccc3s1)CCNC2
IC50 (NCI-H2171): 300 to 1000 nM
IC50 [1]: < 300 nM

SMILES: CC(C)N1CCc2c(sc(NC(=O)CCN(C)C)c2-c2nc3ccccc3s2)C1
IC50 (NCI-H2171): < 300 nM
IC50 [1]: 300 to 1000 nM

SMILES: CC(C)NCCC(=O)Nc1sc2c(c1-c1nc3cc(S(=O)(=O)c4ccccc4)ccc3s1)CCNC2
IC50 (NCI-H2171): < 300 nM
IC50 [1]: 300 to 1000 nM

SMILES: CC(=O)Nc1sc2c(c1-c1nc3cc(-c4ccncc4)ccc3s1)CCNC2
IC50 (NCI-H2171): < 300 nM
IC50 [1]: 300 to 1000 nM

SMILES: CC(C)NCCC(=O)Nc1sc2c(c1-c1nc3cc(C4CCCCC4)ccc3s1)CCNC2
IC50 (NCI-H2171): 300 to 1000 nM
IC50 [1]: > 10000 nM

SMILES: CC(C)NCCC(=O)Nc1sc2c(c1-c1nc3cc(S(C)(=O)=O)ccc3s1)CCNC2
IC50 (NCI-H2171): > 10000 nM
IC50 [1]: < 300 nM

SMILES: Cc1cn(-c2ccc3sc(-c4c(NC(=O)CCNC(C)C)sc5c4CCNC5)nc3c2)cn1
IC50 (NCI-H2171): < 300 nM
IC50 [1]: < 300 nM

More lines, now with the values ahead:

IC50 (NCI-H2171): < 300 nM
IC50 [1]: 1000 to 10000 nM
SMILES: COCCNCCC(=O)Nc1sc2c(c1-c1nc3cc(-c4ccc(OC)nc4)ccc3s1)CCNC2

IC50 (NCI-H2171): 300 to 1000 nM
IC50 [1]: < 300 nM
SMILES: COCCNCCC(=O)Nc1sc2c(c1-c1nc3cc(-c4ccc(O)nc4)ccc3s1)CCNC2

IC50 (NCI-H2171): < 300 nM
IC50 [1]: 1000 to 10000 nM
SMILES: COCCNCCC(=O)Nc1sc2c(c1-c1nc3ccc(-c4ccnn4C)cc3s1)CCNC2

IC50 (NCI-H2171): < 300 nM
IC50 [1]: 1000 to 10000 nM
SMILES: COCCNCCC(=O)Nc1sc2c(c1-c1nc3ccc(-c4cncc(C)c4)cc3s1)CCNC2

IC50 (NCI-H2171): < 300 nM
IC50 [1]: 300 to 1000 nM
SMILES: COCCNCCC(=O)Nc1sc2c(c1-c1nc3ccc(-c4ccnc(NC(C)=O)c4)cc3s1)CCNC2

IC50 (NCI-H2171): < 300 nM
IC50 [1]: > 10000 nM
SMILES: COCCNCCC(=O)Nc1sc2c(c1-c1nc3ccc(-c4cncc(C(F)(F)F)c4)cc3s1)CCNC2

IC50 (NCI-H2171): < 300 nM
IC50 [1]: 300 to 1000 nM
SMILES: COCCNCCC(=O)Nc1sc2c(c1-c1nc3cc(-c4cccc(C#N)c4)ccc3s1)CCNC2

IC50 (NCI-H2171): < 300 nM
IC50 [1]: 300 to 1000 nM
SMILES: COCCNCCC(=O)Nc1sc2c(c1-c1nc3cc(-c4cccc(S(C)(=O)=O)c4)ccc3s1)CCNC2

IC50 (NCI-H2171): 1000 to 10000 nM
IC50 [1]: < 300 nM
SMILES: Cc1nn(C)cc1-c1ccc2sc(-c3c(NC(=O)CCNC(C)C)sc4c3CCNC4)nc2c1

IC50 (NCI-H2171): < 300 nM
IC50 [1]: 300 to 1000 nM
SMILES: COCCNCCC(=O)Nc1sc2c(c1-c1nc3cc(-c4cncc(C)c4)ccc3s1)CCNC2

IC50 (NCI-H2171): < 300 nM
IC50 [1]: < 300 nM
SMILES: COCCNCCC(=O)Nc1sc2c(c1-c1nc3ccc(-c4ccc(N5CCN(C)CC5)cc4)cc3s1)CCNC2

IC50 (NCI-H2171): < 300 nM
IC50 [1]: > 10000 nM
SMILES: Cc1cc(-c2ccc3sc(-c4c(NC(=O)CCNC(C)C)sc5c4CCNC5)nc3c2)cc(C)n1

IC50 (NCI-H2171): 300 to 1000 nM
IC50 [1]: 300 to 1000 nM
SMILES: COCCNCCC(=O)Nc1sc2c(c1-c1nc3cc(-c4ccc(N5CCOCC5)nc4)ccc3s1)CCNC2

IC50 (NCI-H2171): < 300 nM
IC50 [1]: 300 to 1000 nM
SMILES: COCCNCCC(=O)Nc1sc2c(c1-c1nc3cc(-c4cnc(N5CCOCC5)nc4)ccc3s1)CCNC2

IC50 (NCI-H2171): < 300 nM
IC50 [1]: 300 to 1000 nM
SMILES: COCCNCCC(=O)Nc1sc2c(c1-c1nc3ccc(-c4c[nH]nc4C)cc3s1)CCNC2

IC50 (NCI-H2171): < 300 nM
IC50 [1]: 1000 to 10000 nM
SMILES: COCCNCCC(=O)Nc1sc2c(c1-c1nc3c(NS(C)(=O)=O)cccc3s1)CCNC2

IC50 (NCI-H2171): < 300 nM
IC50 [1]: 300 to 1000 nM
SMILES: COCCNCCC(=O)Nc1sc2c(c1-c1nc3cc(-c4ccnn4C)ccc3s1)CCNC2

IC50 (NCI-H2171): < 300 nM
IC50 [1]: 300 to 1000 nM
SMILES: COCCNCCC(=O)Nc1sc2c(c1-c1nc3ccc(-c4cncc(F)c4)cc3s1)CCNC2

IC50 (NCI-H2171): < 300 nM
IC50 [1]: 1000 to 10000 nM
SMILES: COCCNCCC(=O)Nc1sc2c(c1-c1nc3cc(-c4ccc(OC(C)C)nc4)ccc3s1)CCNC2

IC50 (NCI-H2171): 300 to 1000 nM
IC50 [1]: < 300 nM
SMILES: Cc1cc(-c2ccc3sc(-c4c(NC(=O)CCNC(C)C)sc5c4CCNC5)nc3c2)n(C)n1

IC50 (NCI-H2171): < 300 nM
IC50 [1]: > 10000 nM
SMILES: COCCNCCC(=O)Nc1sc2c(c1-c1nc3ccc(-c4ccncc4C)cc3s1)CCNC2
